Measured values from US9724380B2, “Method and compositions for synchronizing time of insemination in gilts” (JBS UNITED ANIMAL HEALTH II LLC, priority 2012, dated 2017).

Experiments:
Assay type in all cases: in vivo, swine
gilts [1] = assay: Example 2: estrus observation post-MATRIX; conditions: older gilts at the first site, all treatments
Description: Two hundred ninety-seven (297) gilts were fed MATRIX® as a top-dress for 14 days at the recommended rate of 15 mg/gilt/day. The last feeding of MATRIX® was at 5:30 AM (Day 0). Approximately one hundred gilts were allocated to each of the following treatments: • 1. Group 1, Controls (n=100); MATRIX® treated, but not OvuGel™ treated, inseminated daily during estrus, as is normally practiced (average of 1.9 inseminations per gilt). • 2. Group 2 (n=98); OvuGel™ treated at 6:30 am (+/−1 hr) on Day 5 and inseminated at 2 to 11 hours post-OvuGel™ treatment on Day 5 if expressing estrus. All gilts inseminated once on Day 6, 26 hours (+/−2.5 hrs) post-OvuGel™ treatment, regardless of estrus status. • 3. Group 3 (n=99); OvuGel™ treated at 6:30 am (+/−1 hr) on Day 5 and inseminated once at 2.5 to 9.5 hours post-OvuGel™ treatment on Day 5 and again on Day 6, 26.5 hours (+/−3 hrs) post-OvuGel™ treatment, without regard to estrus on either day.
(§1) Gilts were housed in individual pens. Boars were housed at least 12 m away and downwind. […] To facilitate detection of estrus, a mature boar was walked slowly in the alley in front of the gilt's pen, exposing each gilt to visual, auditory and olfactory signals from the boar for up to 5 minutes. […]

gilts [2] = assay: Example 3: estrus observation post-MATRIX; conditions: younger gilts at the second site, all treatments
Description: Three hundred twelve (312) gilts were fed MATRIX® as a top-dress for 14 days at the recommended rate of 15 mg/gilt/day. The last feeding of MATRIX® was at 6:30 AM (Day 0). One hundred four gilts were allocated to each of the following treatments: • 1. Group 1, Controls (n=104); MATRIX® treated, but not OvuGel™ treated, inseminated daily during estrus, as is normally practiced at the site (average of 1.8 inseminations per gilt). • 2. Group 2 (n=104); OvuGel™ treated at 7:00 am (+/−1.5 hours) on Day 5 and inseminated at 2 to 4 hours post-OvuGel™ treatment on Day 5 if expressing estrus. All gilts inseminated once on Day 6, 26 hours (+/−2 hrs) post-OvuGel™ treatment, regardless of estrus status. • 3. Group 3 (n=104); OvuGel™ treated at 7:00 am (+/−1.5 hours) on Day 5 and inseminated once at 2 to 4 hours post-OvuGel™ treatment on Day 5 and again on Day 6, 26 hours (+/−2 hrs) post-OvuGel™ treatment, without regard to estrus on either day.
as §1

gilts [3] = assay: Example 5: estrus observation after triptorelin gel dose groups; conditions: all treatments (did not differ among treatments)
Description: (§2) All gilts were individually fed MATRIX® as a top-dress for 14 or 15 days at the recommended rate of 15 mg/gilt/day. Gilts were withdrawn from MATRIX® feeding (last top-dress in the morning on Day 0) and allocated to each of the following treatments. Controls were vehicle gel treated (vehicle gel without triptorelin) at 120 (+/−2) hours following MATRIX® withdrawal (last top dress). The other gilts were given 100, 200 or 400 mcg triptorelin as the acetate in a methylcellulose gel formulation 120 (+/−2) hours following MATRIX® withdrawal. The four treatments were: • 1. Vehicle gel (VG): vehicle gel without triptorelin at 120 (+/−2) hours after MATRIX® withdrawal. • 2. TG 100: 100 mcg (2 mL 50 mcg/mL) triptorelin gel at 120 (+/−2) hours after MATRIX® withdrawal. • 3. TG 200: 200 mcg (2 mL 100 mcg/mL) triptorelin gel at 120 (+/−2) hours after MATRIX® withdrawal. • 4. TG 400: 400 mcg (2 mL 200 mcg/mL) triptorelin gel at 120 (+/−2) hours after MATRIX® withdrawal.
(§3) Triptorelin (pGlu-His-Trp-Ser-Tyr-D-Trp-Leu-Arg-Pro-Gly-NH2) was supplied in the acetate form, from Bachem, Torrance, Calif. (Item H-4075 CGMP grade). Triptorelin gel (100-400 mcg/2 mL dose) was formulated by Argenta (Auckland, NZ) in a gel composed of Methocel Premium A4000 (Dow Chemical), citrate buffer (pH 5.5), NaCl, methionine, and methyl and propyl parabens. Fifty-four milliliters of triptorelin gel (100 mcg triptorelin acetate/mL) was packaged in Amber Borosilicate Glass Serum Vials (610206-50) with a Gray Butyl Pharmaceutical Serum Vial Stopper (73828A-SS) with a Standard Aluminum Seal (SAS20NAT). […] MATRIX® was supplied as the US commercially available form.
For post-treatment estrus detection, gilts were housed in individual pens. Boars were housed in separate rooms, and/or at least 12 m away and downwind. To elicit signs of estrus, a mature boar was walked slowly in the alley in front of the gilts' crates, exposing each test gilt to visual, auditory and olfactory signals from the boar for up to 5 minutes. In keeping with standard practice at commercial farms, while the boar was near the front of the gilt's crate, estrus was tested by an experienced person applying back pressure to the midsection of the gilt combined with side rubbing. Estrus was confirmed when a gilt stood rigidly to the back pressure, with no vocalization and with some indication of an ear reflex. Gilts were not exposed to boars during the first three days after withdrawal of MATRIX® (Day 0 to Day 2). Estrus detection was performed daily on all gilts from Day 3 to Day 7.
A single 2 mL dose of triptorelin gel or vehicle gel was deposited within approximately 1-2 cm posterior to the cervix with a catheter similar to those used for artificial insemination. The dose was delivered using a standard multi-dose applicator attached to the catheter. […]

gilts [4] = assay: Example 5: ovulation monitored by transrectal ultrasonography after 100, 200 or 400 mcg triptorelin gel intravaginally at 120 h after MATRIX withdrawal; conditions: all treatments
Description: as §2, §3
Ovulation was monitored twice on Day 5 (8 hours and 16 hours post-treatment) and every 8 hours on Day 6 and Day 7 or until ovulation was confirmed or 176 hours following last MATRIX® feeding. The ovulatory status of all gilts was monitored by transrectal ultrasonography. An Aloka 500 ultrasound machine is used for this purpose, with a 7.5 MHz linear array transducer attached to a fixed-angle PVC stabilizing rod to facilitate insertion into the rectum. The transducer and PVC rod are coated with a gynecological lubricant and gently inserted into the rectum until the ovaries can be visualized, one at a time. The diameters of the three largest follicles were recorded (to the nearest 0.1 mm) at each scanning. A gilt was declared to have ovulated when the number of large follicles (≧6.5 mm) fell to less than 3.
A single 2 mL dose of triptorelin gel or vehicle gel was deposited within approximately 1-2 cm posterior to the cervix with a catheter similar to those used for artificial insemination. The dose was delivered using a standard multi-dose applicator attached to the catheter. A new disposable sheath, which surrounds the catheter, was used for each gilt.

C=CC[C@]1(O)CC[C@H]2[C@@H]3CCC4=CC(=O)CCC4=C3C=C[C@@]21C [MATRIX®, altrenogest]
gilts that first expressed estrus on Day 5 post-MATRIX, average (gilts [1]): 30.1%
gilts that showed estrus on Day 5 (gilts [2]): 7.4%
interval from last feeding of MATRIX to estrus (gilts [3]): 146 ± 22 h
percentage of gilts which expressed estrus after the last feeding of MATRIX (gilts [3]): 97%
gilts ovulated within the experimental period, overall (gilts [4]): 94%
